# In ChEMBL document CHEMBL3045997, “Some remarkable reactions of the diterpene eriocephalin: Neo-clerodane derivatives with insect antifeedant activity” (1994):
# Legend:
# [1] = test system: Spodoptera littoralis; assay: Antifeedant activity against Spodoptera littoralis larvae fed on compound-treated disk after 18 hr by two-choice assay; assay type: functional
# [2] = test system: Spodoptera littoralis; assay: Antifeedant activity against Spodoptera littoralis larvae fed on compound-treated disk at 100 ppm after 18 hr by two-choice assay; assay type: functional
smiles,measurement,setting,value
CC(=O)O[C@@H]1O[C@H](c2ccoc2)C[C@]12[C@H](C)[C@@H](OC(C)=O)C(=O)[C@H]1[C@@H]2CCC[C@@]12CO[C@H](C)O2,AFC50,[1],>1000 ppm
same,AFI,[2],-5.4%
CC(=O)O[C@@H]1O[C@H](c2ccoc2)C[C@]12[C@H](C)[C@@H](OC(C)=O)C(=O)[C@H]1[C@@H]2CCC[C@@]12CO[C@@H](C)O2,AFC50,[1],>390 ppm
same,AFI,[2],34.1%
CC(=O)OC[C@]12[C@H](CCC[C@]13CO3)[C@@]1(C[C@@H](c3ccoc3)O[C@H]1OC(C)=O)[C@H](C)[C@@H](OC(C)=O)[C@@H]2O,AFC50,[1],>1000 ppm
same,AFI,[2],-21.1%
CC(=O)OC[C@]12[C@H](CCC[C@]13CO3)[C@@]1(C[C@@H](c3ccoc3)O[C@@H]1OC(C)=O)[C@H](C)[C@@H](OC(C)=O)[C@@H]2OC(C)=O,AFC50,[1],>1000 ppm
same,AFI,[2],26.7%
CC(=O)OC[C@]12[C@H](CCC[C@]13CO3)[C@@]1(C[C@@H](c3ccoc3)O[C@@H]1O)[C@H](C)[C@@H](OC(C)=O)[C@@H]2OC(C)=O,AFC50,[1],>1000 ppm
same,AFI,[2],-14.3%
CC(=O)OC[C@]12[C@H](CCC[C@]13CO3)[C@@]1(C[C@@H](c3ccoc3)O[C@@H]1O)[C@H](C)[C@@H](OC(C)=O)[C@@H]2O,AFC50,[1],>1000 ppm
same,AFI,[2],5.4%
CC(=O)OC[C@]12[C@H](CCC[C@]13CO3)[C@@]1(C[C@@H](c3ccoc3)O[C@@H]1O)[C@H](C)[C@@H](O)[C@@H]2OC(C)=O,AFC50,[1],39 ppm
same,AFI,[2],54%
CC(=O)OC[C@]12[C@H](CCC[C@]13CO3)[C@@]1(C[C@@H](c3ccoc3)O[C@@H]1O)[C@H](C)[C@@H](O)[C@@H]2O,AFC50,[1],300 ppm
same,AFI,[2],30.4%
CC(=O)OC[C@]12C(=O)[C@H](O)[C@@H](C)[C@]3(C[C@@H](c4ccoc4)O[C@H]3OC(C)=O)[C@H]1CCC[C@]21CO1 [ERIOCEPHALIN],AFC50,[1],>1000 ppm
same,AFI,[2],5.5%
